The GI50 is the concentration that inhibits growth by half. The TGI is the concentration at which net growth stops. A low value points to greater sensitivity of the cells.

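Test compounds were applied to cells in 96-well plates for 48 hours at 5 doses. Abbreviation: GI50, concentration required for 50% inhibition of growth. TGI: concentration producing complete growth inhibition.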

Some test systems named below: SR leukemia; SF-539 CNS; HS 578T breast; UACC-257 melanoma; EKVX NSCLC; SK-MEL-5 melanoma; OVCAR-4 ovarian; SW-620 colon.
Common to all, as to experiment: DTP human tumour cell line panel, 48 h

`CNCCCn1c2c(c3ccc(F)cc3c1=O)C(=O)c1cc(OC)cnc1-2`: the GI50 with SR leukemia was 0.12 µM; in the assay with SF-539 CNS, 0.368 µM; in the assay with HS 578T breast, 2.24 µM; with UACC-257 melanoma it was 0.485 µM; with EKVX NSCLC it was 0.301 µM; with SK-MEL-5 melanoma it was 0.307 µM. Besides, the GI50 in the assay with OVCAR-4 ovarian was 0.421 µM; in the assay with SW-620 colon it was 0.184 µM. Further, the TGI with SR leukemia was found to be 1.13 µM; in the assay on SF-539 CNS it was 1.36 µM; in the assay with HS 578T breast, 16.2 µM; in the assay with UACC-257 melanoma it was 1.9 µM; in the assay on EKVX NSCLC, 1.96 µM; with SK-MEL-5 melanoma it was 1.08 µM. Besides, the values for the TGI in the assay with OVCAR-4 ovarian and in the assay with SW-620 colon were 10.5 µM and 2.03 µM, respectively.

For `O=C(Nc1cccc(-n2cc(-c3ccncc3)c(-c3ccc(O)c(Cl)c3)n2)c1)c1ccc(Cl)c(Cl)c1`, the GI50 is 3.57 µM with SR leukemia; 3.47 µM with SF-539 CNS; 2.82 µM with HS 578T breast; 4.12 µM in the assay with UACC-257 melanoma; 3.9 µM in the assay with SK-MEL-5 melanoma; 9.9 µM with OVCAR-4 ovarian. Moreover, the GI50 in the assay on SW-620 colon was 3.89 µM. Moreover, the TGI with SR leukemia is over 100 µM; with SF-539 CNS, over 100 µM; in the assay with HS 578T breast it was over 100 µM; with UACC-257 melanoma, 31.3 µM; in the assay on SK-MEL-5 melanoma, 18.7 µM; with OVCAR-4 ovarian it was over 100 µM. In the assay with SW-620 colon, this molecule came in with a TGI of over 100 µM.

Take `Nc1cc2nc3ccccc3oc-2cc1=O`: the GI50 in the assay on SR leukemia is 9.93 µM; with SF-539 CNS it was 2.45 µM; in the assay with HS 578T breast it was 1.48 µM; with UACC-257 melanoma, 2.35 µM; in the assay with EKVX NSCLC it was 7.38 µM; in the assay with SK-MEL-5 melanoma it was 1.16 µM. The results for the GI50 with OVCAR-4 ovarian and in the assay with SW-620 colon were 23.4 µM and 1.91 µM, respectively. For the same molecule, the TGI in the assay on SR leukemia is over 75.3 µM; in the assay with SF-539 CNS, 6.75 µM; with HS 578T breast, 5.52 µM; in the assay with UACC-257 melanoma it was 6.68 µM; in the assay with EKVX NSCLC, over 64.2 µM; with SK-MEL-5 melanoma it was 2.38 µM. Besides, the TGI was over 100 µM with OVCAR-4 ovarian and 5.08 µM in the assay on SW-620 colon.

For the molecule `C[C@]12CC[C@@H]3c4ccc(O)cc4CC[C@H]3[C@@H]1CC[C@@H]2NS(=O)(=O)c1ccc2ccccc2c1`, the GI50 with SR leukemia is 3.72 µM; in the assay with SF-539 CNS it was 2.11 µM; with HS 578T breast, 2.21 µM; with UACC-257 melanoma, 3.3 µM; in the assay with SK-MEL-5 melanoma, 1.78 µM; with OVCAR-4 ovarian it was 1.98 µM. Besides, in the assay with SW-620 colon, the GI50 is 3.4 µM. Besides, the TGI was 95 µM in the assay with SR leukemia; 6.1 µM in the assay on SF-539 CNS; 7.14 µM in the assay on HS 578T breast; 17.6 µM in the assay on UACC-257 melanoma; 3.36 µM in the assay with SK-MEL-5 melanoma; 9.36 µM in the assay on OVCAR-4 ovarian. The total growth inhibition concentration (TGI) in the assay with SW-620 colon came to 15.7 µM.

On to `CCOC(=O)c1nc2cc(C(F)(F)F)ccc2[n+]([O-])c1C`, for which the GI50 with SR leukemia, in the assay on SF-539 CNS, with HS 578T breast, with UACC-257 melanoma, in the assay with EKVX NSCLC and with SK-MEL-5 melanoma was over 100 µM throughout. Moreover, the GI50 in the assay on OVCAR-4 ovarian and in the assay with SW-620 colon was over 100 µM each time. The total growth inhibition concentration (TGI) in the assay with SR leukemia, with SF-539 CNS, in the assay with HS 578T breast, in the assay on UACC-257 melanoma, with EKVX NSCLC and in the assay on SK-MEL-5 melanoma was over 100 µM each time. Further, the TGI in the assay on OVCAR-4 ovarian and in the assay with SW-620 colon was over 100 µM throughout.

In the case of `COC(=O)[C@@H](OC)[C@@H]1Cc2cc3cc(OC4CC(OC5CC(O)C(O)C(C)O5)C(O)C(C)O4)c(C)c(O)c3c(O)c2C(=O)[C@H]1OC1CC(OC2CC(OC3CC(C)(O)C(O)C(C)O3)C(O)C(C)O2)C(O)C(C)O1` (stereo not given in full), the GI50 in the assay on SR leukemia was 0.0103 µM; in the assay with SF-539 CNS, 0.025 µM; in the assay on HS 578T breast it was 0.0399 µM; in the assay with UACC-257 melanoma, 0.0507 µM; in the assay on EKVX NSCLC, 0.0457 µM; with SK-MEL-5 melanoma, 0.0327 µM. For the same molecule, the 50% growth inhibitory concentration (GI50) in the assay with OVCAR-4 ovarian was 0.0413 µM; in the assay with SW-620 colon it was 0.04 µM. Besides, the total growth inhibition concentration (TGI) was over 16.5 µM with SR leukemia; 0.082 µM in the assay on SF-539 CNS; 0.223 µM with HS 578T breast; 0.497 µM with UACC-257 melanoma; 1.22 µM in the assay with EKVX NSCLC; 0.0892 µM with SK-MEL-5 melanoma. Moreover, the figures for the TGI with OVCAR-4 ovarian and with SW-620 colon were 0.553 µM and over 16.5 µM, respectively.

`O=Nc1c(O)c2ccccc2c2ccccc12`: the GI50 in the assay on SR leukemia was 1.07 µM; in the assay on SF-539 CNS it was 0.379 µM; in the assay with HS 578T breast, 2 µM; in the assay with UACC-257 melanoma, 0.476 µM; with EKVX NSCLC it was 1.7 µM; with SK-MEL-5 melanoma it was 0.56 µM. Moreover, the GI50 is 0.198 µM in the assay on OVCAR-4 ovarian and 1.2 µM with SW-620 colon. The TGI in the assay with SR leukemia came out at 64.2 µM; with SF-539 CNS, 1.6 µM; with HS 578T breast, 5.65 µM; in the assay on UACC-257 melanoma, 1.75 µM; with EKVX NSCLC, 3.32 µM; in the assay with SK-MEL-5 melanoma, 1.77 µM. The TGI in the assay on OVCAR-4 ovarian was determined as 0.48 µM; with SW-620 colon, 3.19 µM.

`CCN(Cc1cccc(F)c1F)c1ccc(CO)c(Cl)c1`: the GI50 was 18.8 µM in the assay with SR leukemia; 15.5 µM in the assay with SF-539 CNS; 17.9 µM in the assay with HS 578T breast; 0.0896 µM in the assay with UACC-257 melanoma; 11.2 µM with SK-MEL-5 melanoma; 0.127 µM in the assay on OVCAR-4 ovarian. Moreover, the GI50 with SW-620 colon was 0.554 µM. Moreover, the TGI in the assay on SR leukemia turned out to be 43.7 µM; in the assay on SF-539 CNS it was 30.2 µM; with HS 578T breast, 48.7 µM; in the assay with UACC-257 melanoma, 0.326 µM; in the assay on SK-MEL-5 melanoma, 23.4 µM; with OVCAR-4 ovarian it was 1.24 µM. In the assay with SW-620 colon, the TGI is 18.1 µM.

In the case of `COC(=O)/C(=C\c1c(-c2ccccc2)[nH]c2ccccc12)S(C)(=O)=O`, the GI50 with SR leukemia is 8.08 µM; in the assay with SF-539 CNS it was 3.11 µM; in the assay with HS 578T breast, 3.46 µM; in the assay on UACC-257 melanoma, 11.2 µM; in the assay on EKVX NSCLC, 8.92 µM; with OVCAR-4 ovarian it was 6.23 µM. The GI50 with SW-620 colon is 2.92 µM. Moreover, the TGI with SR leukemia is over 100 µM; in the assay with SF-539 CNS, 11.5 µM; in the assay on HS 578T breast, over 100 µM; with UACC-257 melanoma, 25.9 µM; in the assay on EKVX NSCLC, over 100 µM; in the assay with OVCAR-4 ovarian, over 100 µM. Moreover, the TGI in the assay with SW-620 colon came to 15.9 µM.

As for `COc1ccc(C#CC2=C(c3cc(OC)c(OC)c(OC)c3)C(=O)OC2)cc1`, the GI50 with SR leukemia was 2.09 µM; in the assay on SF-539 CNS, 1.29 µM; with HS 578T breast, 13.1 µM; with UACC-257 melanoma, 13 µM; with EKVX NSCLC it was 13.7 µM; with SK-MEL-5 melanoma, 2.07 µM. For the same molecule, the GI50 in the assay on OVCAR-4 ovarian was 1.51 µM. The concentration for total growth inhibition (TGI) with SR leukemia was over 50 µM; in the assay with SF-539 CNS, 3.26 µM; in the assay on HS 578T breast, over 50 µM; with UACC-257 melanoma it was over 50 µM; in the assay with EKVX NSCLC it was 41.8 µM; in the assay with SK-MEL-5 melanoma, 11.9 µM. In the assay with OVCAR-4 ovarian, this molecule showed a total growth inhibition concentration (TGI) of over 50 µM.

The values above are taken from PubChem BioAssay (NCI).
